Measured values reported in ChEMBL document CHEMBL1909046, “DrugMatrix in vitro pharmacology data”.

Experiments:
D(4) dopamine receptor = molecular target: T1, D(4) dopamine receptor (Homo sapiens, UniProt P21917); assay: DRUGMATRIX: Dopamine D4.2 radioligand binding (ligand: [3H] Spiperone); format: cell membranes, CHO-K1, Membrane; conditions: Not Active = under 50% inhibition at 10 µM; for Ki: read-out: Ki
T1 sequence (P21917 whole entry): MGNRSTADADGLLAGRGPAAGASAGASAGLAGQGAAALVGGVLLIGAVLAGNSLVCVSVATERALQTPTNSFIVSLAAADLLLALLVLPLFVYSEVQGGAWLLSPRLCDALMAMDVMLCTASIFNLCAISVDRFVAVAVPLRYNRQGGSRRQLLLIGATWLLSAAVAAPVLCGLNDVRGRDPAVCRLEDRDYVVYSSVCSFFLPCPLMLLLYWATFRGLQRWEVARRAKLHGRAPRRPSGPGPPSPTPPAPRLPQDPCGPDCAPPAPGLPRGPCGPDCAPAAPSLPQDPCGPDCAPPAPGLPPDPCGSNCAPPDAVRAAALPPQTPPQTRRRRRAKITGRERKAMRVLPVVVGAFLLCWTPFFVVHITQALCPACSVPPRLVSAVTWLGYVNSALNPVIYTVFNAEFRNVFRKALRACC

[1] = DRUGMATRIX: GABAA, Chloride Channel, TBOB radioligand binding (ligand: [3H] TBOB); format: cell membranes, Rattus norvegicus, Wistar, Cerebral cortex, Membrane; conditions: Not Active = under 50% inhibition at 10 µM
[2] = DRUGMATRIX: Glutamate, NMDA, Agonism radioligand binding (ligand: [3H] CGP-39653); format: cell membranes, Rattus norvegicus, Wistar, Cerebral cortex, Membrane; conditions: Not Active = under 50% inhibition at 10 µM
[3] = DRUGMATRIX: Interleukin IL-1 radioligand binding (ligand: [125I] interleukin 1beta); format: cell membranes, Membrane; conditions: nih3t3; Not Active = under 50% inhibition at 10 µM
[4] = molecular target: T2, Angiotensin-converting enzyme (Oryctolagus cuniculus, UniProt P12822); assay: biochemical; format: tissue-based, Lung;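 also: enzymatic inhibition of angiotensin-converting enzyme measured with FAPGG as the substrate; in other assays of this panel Not Active means under 50% inhibition at 10 µM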
T2 sequence (P12822 whole entry): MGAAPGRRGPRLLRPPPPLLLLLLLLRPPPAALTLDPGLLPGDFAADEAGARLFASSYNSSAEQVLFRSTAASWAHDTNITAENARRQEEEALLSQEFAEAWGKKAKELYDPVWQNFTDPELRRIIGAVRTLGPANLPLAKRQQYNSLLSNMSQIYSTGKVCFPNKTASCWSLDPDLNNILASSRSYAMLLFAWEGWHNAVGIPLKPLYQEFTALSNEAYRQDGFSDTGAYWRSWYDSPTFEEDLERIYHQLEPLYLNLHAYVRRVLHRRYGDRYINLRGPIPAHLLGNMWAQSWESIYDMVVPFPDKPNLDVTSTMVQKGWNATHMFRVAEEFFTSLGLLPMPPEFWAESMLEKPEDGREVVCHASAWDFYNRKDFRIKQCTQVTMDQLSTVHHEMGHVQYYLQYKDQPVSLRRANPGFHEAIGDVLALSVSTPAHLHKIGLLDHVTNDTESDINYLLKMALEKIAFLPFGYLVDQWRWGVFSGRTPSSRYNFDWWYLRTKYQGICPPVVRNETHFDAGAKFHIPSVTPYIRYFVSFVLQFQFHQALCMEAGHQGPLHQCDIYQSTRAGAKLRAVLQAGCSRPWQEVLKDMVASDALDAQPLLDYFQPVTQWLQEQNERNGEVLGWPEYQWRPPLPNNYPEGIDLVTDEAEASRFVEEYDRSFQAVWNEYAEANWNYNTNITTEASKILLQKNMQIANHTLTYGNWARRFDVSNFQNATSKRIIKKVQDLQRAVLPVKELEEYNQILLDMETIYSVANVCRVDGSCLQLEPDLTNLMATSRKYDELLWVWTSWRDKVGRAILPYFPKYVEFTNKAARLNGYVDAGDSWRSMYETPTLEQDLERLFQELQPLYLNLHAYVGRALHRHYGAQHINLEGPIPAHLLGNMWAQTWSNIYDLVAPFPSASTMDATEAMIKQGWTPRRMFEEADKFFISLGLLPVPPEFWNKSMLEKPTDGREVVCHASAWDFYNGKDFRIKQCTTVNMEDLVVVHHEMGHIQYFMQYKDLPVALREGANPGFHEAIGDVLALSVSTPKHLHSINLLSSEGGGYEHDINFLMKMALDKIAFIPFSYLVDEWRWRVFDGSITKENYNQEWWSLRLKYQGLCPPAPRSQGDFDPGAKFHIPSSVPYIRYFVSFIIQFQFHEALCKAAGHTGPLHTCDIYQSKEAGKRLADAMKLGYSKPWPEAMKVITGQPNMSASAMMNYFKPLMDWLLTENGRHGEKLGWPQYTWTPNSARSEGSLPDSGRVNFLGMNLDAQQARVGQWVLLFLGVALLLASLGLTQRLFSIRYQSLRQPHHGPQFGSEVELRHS

Melanocortin receptor 5 = Melanocortin receptor 5 (Homo sapiens, UniProt P33032); format: cell membranes, HEK293, Membrane; also: in other assays of this panel Not Active means under 50% inhibition at 10 µM
[5] = molecular target: T3, Muscarinic acetylcholine receptor M5 (Homo sapiens, UniProt P08912); format: cell membranes, CHO-K1, Membrane; conditions: for Ki: read-out: Ki; as to all read-outs here: in other assays of this panel Not Active means under 50% inhibition at 10 µM
T3 sequence (P08912 whole entry): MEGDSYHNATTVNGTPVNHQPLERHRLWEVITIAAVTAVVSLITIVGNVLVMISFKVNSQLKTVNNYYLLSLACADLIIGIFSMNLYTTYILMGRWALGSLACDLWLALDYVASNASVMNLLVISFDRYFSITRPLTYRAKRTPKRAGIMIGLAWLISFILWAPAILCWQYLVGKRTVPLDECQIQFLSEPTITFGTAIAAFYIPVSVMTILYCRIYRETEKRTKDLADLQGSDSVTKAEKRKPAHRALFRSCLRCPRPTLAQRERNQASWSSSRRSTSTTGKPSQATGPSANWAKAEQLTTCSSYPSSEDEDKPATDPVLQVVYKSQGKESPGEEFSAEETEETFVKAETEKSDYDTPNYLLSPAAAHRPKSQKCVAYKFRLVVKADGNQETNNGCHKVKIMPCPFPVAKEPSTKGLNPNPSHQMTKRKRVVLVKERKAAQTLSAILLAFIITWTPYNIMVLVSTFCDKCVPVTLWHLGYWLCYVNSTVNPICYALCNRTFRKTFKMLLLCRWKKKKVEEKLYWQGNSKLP

[6] = molecular target: Epidermal growth factor receptor (Homo sapiens, UniProt P00533); assay: DRUGMATRIX: Protein Tyrosine Kinase, EGF Receptor enzyme inhibition (substrate: Poly(Glu:Tyr)); format: cell-based, Insect cells; conditions: Not Active = under 50% inhibition at 10 µM
Sequence of Epidermal growth factor receptor (P00533 whole entry): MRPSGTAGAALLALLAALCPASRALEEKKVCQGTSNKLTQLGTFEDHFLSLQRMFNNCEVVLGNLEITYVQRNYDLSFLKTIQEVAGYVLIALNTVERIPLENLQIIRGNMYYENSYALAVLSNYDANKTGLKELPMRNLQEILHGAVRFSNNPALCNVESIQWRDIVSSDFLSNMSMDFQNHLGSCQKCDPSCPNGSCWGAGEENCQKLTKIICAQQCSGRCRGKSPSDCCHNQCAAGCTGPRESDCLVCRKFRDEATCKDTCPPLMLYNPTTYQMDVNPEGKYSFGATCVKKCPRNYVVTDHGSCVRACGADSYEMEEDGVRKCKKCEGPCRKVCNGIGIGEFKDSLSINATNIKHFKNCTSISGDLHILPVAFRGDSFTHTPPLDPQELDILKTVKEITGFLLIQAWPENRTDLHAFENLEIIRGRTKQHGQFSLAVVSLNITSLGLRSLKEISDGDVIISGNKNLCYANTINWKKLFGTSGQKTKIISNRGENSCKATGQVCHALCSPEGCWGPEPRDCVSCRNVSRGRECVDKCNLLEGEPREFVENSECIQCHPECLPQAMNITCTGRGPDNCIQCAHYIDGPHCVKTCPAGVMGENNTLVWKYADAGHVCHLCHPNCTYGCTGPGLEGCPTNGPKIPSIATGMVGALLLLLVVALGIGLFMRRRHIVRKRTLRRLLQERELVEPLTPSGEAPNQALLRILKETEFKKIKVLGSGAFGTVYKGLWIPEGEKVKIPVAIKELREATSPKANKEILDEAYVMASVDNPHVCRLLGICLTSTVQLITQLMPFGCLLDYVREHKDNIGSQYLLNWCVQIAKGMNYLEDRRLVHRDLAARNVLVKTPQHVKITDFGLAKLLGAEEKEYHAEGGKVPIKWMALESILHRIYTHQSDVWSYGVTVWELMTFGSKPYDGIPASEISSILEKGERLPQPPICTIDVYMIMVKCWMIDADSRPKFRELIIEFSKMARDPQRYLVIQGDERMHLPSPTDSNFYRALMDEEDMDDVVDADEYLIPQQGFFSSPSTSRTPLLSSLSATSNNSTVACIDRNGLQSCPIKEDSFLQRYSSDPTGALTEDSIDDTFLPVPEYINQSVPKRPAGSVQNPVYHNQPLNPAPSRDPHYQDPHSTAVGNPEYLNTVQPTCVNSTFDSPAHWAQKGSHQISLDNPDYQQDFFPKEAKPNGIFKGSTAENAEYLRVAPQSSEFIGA

Sequence of Melanocortin receptor 5 (P33032 whole entry): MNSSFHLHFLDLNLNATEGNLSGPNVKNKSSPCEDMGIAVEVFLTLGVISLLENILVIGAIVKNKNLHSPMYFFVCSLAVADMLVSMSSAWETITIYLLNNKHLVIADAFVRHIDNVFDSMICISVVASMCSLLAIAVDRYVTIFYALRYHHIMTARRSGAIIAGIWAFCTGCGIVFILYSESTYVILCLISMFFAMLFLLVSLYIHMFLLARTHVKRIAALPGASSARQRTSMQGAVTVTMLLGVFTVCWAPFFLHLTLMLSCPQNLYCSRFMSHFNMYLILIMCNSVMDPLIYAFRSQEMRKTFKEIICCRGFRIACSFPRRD

SMILES	IC50 (D(4) dopamine receptor; cho-k1)	IC50 [1]	Ki [1]	IC50 [2]	Ki [2]	IC50 [3]	Ki [3]	IC50 [4]	IC50 (Melanocortin receptor 5; hek293)	IC50 ([5]; cho-k1)	IC50 ([6]; insect cells)	IC50 ([5]; read-out: IC50) [µM]	Ki [5] [µM]	IC50 ([1]; read-out: IC50) [µM]	Ki ([1]; read-out: Ki) [µM]	IC50 (D(4) dopamine receptor; read-out: IC50) [µM]	Ki (D(4) dopamine receptor) [µM]	IC50 ([6]; read-out: IC50) [µM]	IC50 (Melanocortin receptor 5; read-out: IC50) [µM]	Ki (Melanocortin receptor 5; read-out: Ki) [µM]
CN[C@@H]1[C@@H](O)[C@@H](O[C@@H]2[C@@H](O)[C@H](O[C@H]3OC(CN)=CC[C@H]3N)[C@@H](N)C[C@H]2N)OC[C@]1(C)O [SISOMICIN]	Not Active	Not Active	Not Active	Not Active	Not Active	Not Active	Not Active	Not Active	Not Active	Not Active	Not Active									
NNc1ccccc1 [PHENYLHYDRAZINE]	Not Active	Not Active	Not Active	Not Active	Not Active	Not Active	Not Active	Not Active	Not Active	Not Active	Not Active									
C[C@](N)(Cc1ccc(O)cc1)C(=O)O [METYROSINE]	Not Active	Not Active	Not Active	Not Active	Not Active	Not Active	Not Active	Not Active	Not Active	Not Active	Not Active									
CN1CCN2c3ccccc3Cc3ccccc3C2C1 (stereo not drawn) [MIANSERIN]	Not Active							Not Active	Not Active		Not Active	0.32	0.23							
CC(=O)[C@H]1CC[C@H]2[C@@H]3CCC4=CC(=O)CC[C@]4(C)[C@H]3CC[C@]12C [PROGESTERONE]	Not Active			Not Active	Not Active	Not Active	Not Active	Not Active	Not Active	Not Active	Not Active			24.9	22.3					
Nc1ccc(S(=O)(=O)Nc2ccnn2-c2ccccc2)cc1 [SULFAPHENAZOLE]	Not Active	Not Active	Not Active	Not Active	Not Active	Not Active	Not Active	Not Active	Not Active	Not Active	Not Active									
CC(CCc1ccccc1)NCC(O)c1ccc(O)c(C(N)=O)c1 (stereo not drawn) [LABETALOL]	Not Active	Not Active	Not Active	Not Active	Not Active	Not Active	Not Active	Not Active	Not Active	Not Active	Not Active									
CC(C)(C)NC(=O)[C@@H]1CN(Cc2cccnc2)CCN1C[C@@H](O)C[C@@H](Cc1ccccc1)C(=O)N[C@H]1c2ccccc2C[C@H]1O.O	Not Active	Not Active	Not Active	Not Active	Not Active	Not Active	Not Active	Not Active	Not Active	Not Active	Not Active									
CSc1ccc2c(c1)N(CCC1CCCCN1C)c1ccccc1S2 (stereo not drawn) [THIORIDAZINE]								Not Active	Not Active							1.47	0.515	2.95		
COc1c(C)c2c(c(O)c1C/C=C(\C)CCC(=O)OCCN1CCOCC1)C(=O)OC2 [MYCOPHENOLATE MOFETIL]	Not Active	Not Active	Not Active	Not Active	Not Active	Not Active	Not Active	Not Active	Not Active	Not Active	Not Active									
CN(C)CCCN1c2ccccc2CCc2ccc(Cl)cc21 [CLOMIPRAMINE]	Not Active							Not Active	Not Active		Not Active	0.053	0.038							
CC(C)(O)c1ccccc1CC[C@@H](SCC1(CC(=O)O)CC1)c1cccc(/C=C/c2ccc3ccc(Cl)cc3n2)c1 [MONTELUKAST]	Not Active							Not Active	Not Active									3.2		
Clc1ccccc1C(c1ccccc1)(c1ccccc1)n1ccnc1 [CLOTRIMAZOLE]								Not Active	Not Active							19.9	6.99	69.4		
COc1cccc(C2(O)CCCCC2CN(C)C)c1 (stereo not drawn) [TRAMADOL]	Not Active							Not Active	Not Active	Not Active	Not Active									
O=C(CCCN1CCC(O)(c2ccc(Cl)cc2)CC1)c1ccc(F)cc1 [HALOPERIDOL]								Not Active	Not Active		Not Active									
COc1ccc(CCN2CCC(Nc3nc4ccccc4n3Cc3ccc(F)cc3)CC2)cc1 [ASTEMIZOLE]								Not Active				0.703	0.505					6.06	2.26	2.12
